The values that follow come from US11780821B2, “Inhibitors of fibroblast activation protein” (Praxis Biotech LLC, priority 2017, dated 2023).

Holding throughout (type): biochemical
Assay [1] deals with T1, recombinant human FAP (rhFAP) (Homo sapiens, UniProt Q12884).
T1 construct: purchased R&D systems 3715-SE-010
T1 sequence (Q12884 1-760): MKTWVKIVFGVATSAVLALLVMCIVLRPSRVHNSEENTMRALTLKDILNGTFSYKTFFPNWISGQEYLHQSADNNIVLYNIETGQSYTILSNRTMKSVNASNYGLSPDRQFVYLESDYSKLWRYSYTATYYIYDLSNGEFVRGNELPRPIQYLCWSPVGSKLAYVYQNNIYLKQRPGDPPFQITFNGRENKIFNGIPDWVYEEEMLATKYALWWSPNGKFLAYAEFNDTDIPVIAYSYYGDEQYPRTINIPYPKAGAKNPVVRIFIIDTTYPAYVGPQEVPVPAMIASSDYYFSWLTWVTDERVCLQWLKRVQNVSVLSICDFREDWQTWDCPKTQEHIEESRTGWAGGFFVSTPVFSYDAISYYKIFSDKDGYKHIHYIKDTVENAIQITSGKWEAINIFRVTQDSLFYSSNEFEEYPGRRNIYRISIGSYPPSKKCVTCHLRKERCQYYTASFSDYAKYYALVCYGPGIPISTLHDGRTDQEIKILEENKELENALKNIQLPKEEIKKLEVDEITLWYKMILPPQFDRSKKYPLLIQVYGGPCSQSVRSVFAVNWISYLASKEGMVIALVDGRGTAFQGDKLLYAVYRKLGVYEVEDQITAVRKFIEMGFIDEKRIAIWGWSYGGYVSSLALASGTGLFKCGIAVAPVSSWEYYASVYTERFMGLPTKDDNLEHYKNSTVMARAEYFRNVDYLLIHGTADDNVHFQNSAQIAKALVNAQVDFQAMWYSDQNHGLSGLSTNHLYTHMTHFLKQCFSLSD
Put plainly: Inhibition of FAP-mediated digestion of FGF21 in vitro. Here is the method:
Recombinant human FGF21 (rhFGF21; Cat. No. #2539-FG-025/CF, R&D systems) was incubated overnight (16 h) at 37° C. with recombinant human FAP (rhFAP; Cat. No. #3715-SE-010, R&D systems) in digestion buffer (50 mM Tris pH 7.4, 100 mM NaCl, 0.1 mg/ml bovine serum albumin). Reactions were carried out at final concentrations of 1000 ng/mL hFGF21 and 400, 800 or 1200 ng/mL rhFAP in a volume of 100 μL. For SDS-PAGE analysis, after incubation each sample received immediately 4× Laemmli protein sample buffer (Cat. No. #161-0747, Bio-Rad) supplemented with 0.1 ml […]/10 ml aliquot and then boiled at 95° C. during 10 min. An aliquot of 15 μL of each sample were then loaded onto a reducing 20% Tris-Tricine SDS-PAGE gel. For immunoblot analysis, proteins were separated on SDS-PAGE gels and transferred to PVDF membranes (Cat. No. #1620177, Bio-Rad). […] Proteins were detected using the ECL Western Blotting Substrate (Cat. No. #32106, Thermo Fisher Scientific) and visualized using a ChemiDoc™ Imaging System (Biorad) and Image lab software v5.2.1 build 11. […]
Additionally, the IC50 for FAP-mediated proteolytic cleavage of FGF21, was determined in the using a serial dilution of compound 13 (an exemplary compound).

Assay [2] concerns the target T2, recombinant mouse FAPα (rmFAPα) (Mus musculus, UniProt P97321).
T2 construct: purchased R&S system (so in the source)
T2 sequence (P97321 1-761): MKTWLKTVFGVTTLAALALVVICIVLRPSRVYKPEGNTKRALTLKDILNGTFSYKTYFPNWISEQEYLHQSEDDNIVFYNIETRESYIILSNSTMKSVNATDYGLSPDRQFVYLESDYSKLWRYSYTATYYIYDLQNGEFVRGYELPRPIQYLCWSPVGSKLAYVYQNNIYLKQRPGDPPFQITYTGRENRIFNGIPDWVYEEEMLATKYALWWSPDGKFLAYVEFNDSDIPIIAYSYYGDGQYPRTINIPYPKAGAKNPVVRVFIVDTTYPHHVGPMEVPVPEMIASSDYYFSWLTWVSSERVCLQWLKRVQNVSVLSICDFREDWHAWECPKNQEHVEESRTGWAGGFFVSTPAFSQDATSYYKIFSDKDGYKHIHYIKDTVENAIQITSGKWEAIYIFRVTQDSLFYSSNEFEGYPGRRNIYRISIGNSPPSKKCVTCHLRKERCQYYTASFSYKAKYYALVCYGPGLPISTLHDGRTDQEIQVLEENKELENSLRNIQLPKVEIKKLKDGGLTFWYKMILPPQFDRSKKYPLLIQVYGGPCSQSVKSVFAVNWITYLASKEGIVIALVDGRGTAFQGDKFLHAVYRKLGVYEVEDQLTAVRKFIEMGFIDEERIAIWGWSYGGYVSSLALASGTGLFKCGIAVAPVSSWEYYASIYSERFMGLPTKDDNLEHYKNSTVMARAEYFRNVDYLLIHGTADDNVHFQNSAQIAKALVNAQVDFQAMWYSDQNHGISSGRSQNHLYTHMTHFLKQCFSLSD
Kind of assay: FAPα enzymatic exopeptidase (dipeptidase) activity assay. The settings on record: exopeptidase, read-out: rmFAPα (exo IC50).

Assay [3] concerns the target T2, recombinant mouse FAPα (rmFAPα). Described as above. The following applies: 1 μM test compound; Z-Gly-Pro-AMC substrate; read-out: rmFAPα (% exo inh @ 1 μM). An outline of the steps:
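AMC release read by fluorescence at Ex/Em 380/460 nm. Substrate-only (no enzyme) wells subtracted as blank; percent inhibition relative to vehicle + enzyme + substrate as maximal activity. Single-point measurement, run in duplicate.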

Where two headings read alike, the source gives them in different places.

Consider `N#C[C@@H]1CC(F)(F)CN1C(=O)CNC(=O)c1ccncc1-c1ccccc1` [Compound 13, (S)—N-(2-(2-cyano-4,4-difluoropyrrolidin-1-yl)-2-oxoethyl)-3-phenylisonicotinamide], for which, in assay [1] (100 and 1000 nM, 16 h at 37° C.), the “inhibition of proteolytic processing of rhFGF21 by rhFAP (intact rhFGF21, Western blot)” value is listed as “intact form of rhFGF21 is preserved”. The “IC50 for FAP-mediated proteolytic cleavage of FGF21” value in assay [1] (serial dilution, densitometry) was “nanomolar range”. Also, the IC50 in assay [2] (Table 2, Z-Gly-Pro-AMC) is below 1000 nM; in assay [2] (Table 3) it was below 1000 nM.

Turning to `N#C[C@@H]1CC(F)(F)CN1C(=O)CNC(=O)c1ccncc1C1CC1` [Compound 24, (S)—N-(2-(2-cyano-4,4-difluoropyrrolidin-1-yl)-2-oxoethyl)-3-cyclopropylisonicotinamide], the half-maximal inhibitory concentration (IC50) is below 1000 nM in assay [2] (Table 2, Z-Gly-Pro-AMC) and below 1000 nM in assay [2] (Table 3).

Regarding `N#C[C@@H]1CC(F)(F)CN1C(=O)CNC(=O)c1ccncc1-c1ccc(F)cc1` [Compound 52, (S)—N-(2-(2-cyano-4,4-difluoropyrrolidin-1-yl)-2-oxoethyl)-3-(4-fluorophenyl)isonicotinamide], the IC50 in assay [2] (Table 2, Z-Gly-Pro-AMC) was below 1000 nM; in assay [2] (Table 3) it was below 1000 nM.

For `N#C[C@@H]1CC(F)(F)CN1C(=O)CNC(=O)c1ccncc1N1CCOCC1` [Compound 88, N-[2-[(2S)-2-cyano-4,4-difluoro-pyrrolidin-1-yl]-2-oxo-ethyl]-3-morpholino-pyridine-4-carboxamide], the IC50 in assay [2] (Table 3) is below 1000 nM.

For the compound `N#C[C@@H]1CC(F)(F)CN1C(=O)CNC(=O)c1c[nH]c(=O)c2ccccc12` [Example 1, (S)—N-(2-(2-cyano-4,4-difluoropyrrolidin-1-yl)-2-oxoethyl)-1-oxo-1,2-dihydroisoquinoline-4-carboxamide], in assay [3], the inhibition at 1 µM was above 50%. Besides, the IC50 is below 1000 nM in assay [2] (Table 2, Z-Gly-Pro-AMC) and below 1000 nM in assay [2] (Table 3).
